Source: patent US20110045101A1, “FUNGICIDAL SUBSTITUTED AZOLES” (E.I. Du Pont De Nemours and Company, priority 2009, published 2011)
Marks after values point to notes of the source that are not given here.

Legend:
Assay type in all cases: in vivo
[1] = test system: Septoria nodorum; experiment: Test F: wheat glume blotch on wheat seedlings, sprayed the day before inoculation, visual disease rating; conditions: 100 = 100% disease control; for pest or weed control at 200 ppm: Parastagonospora nodorum, 264 h
Excerpt: (§1) General protocol for preparing test suspensions for Tests A-J: The test compounds were first dissolved in acetone in an amount equal to 3% of the final volume and then suspended at the desired concentration (in ppm) in acetone and purified water (50/50 mix) containing 250 ppm of the surfactant Trem® 014 (polyhydric alcohol esters). The resulting test suspensions were then used in tests A-J. Spraying a 200 ppm test suspension to the point of run-off on the test plants was the equivalent of a rate of 500 g/ha. […] The test suspension was sprayed to the point of run-off on wheat seedlings. […] A dash (-) indicates no test results. All results are for 200 ppm except where followed by “*”, which indicates 40 ppm.

[2] = test system: Puccinia recondita f. sp. tritici; experiment: Test I: wheat leaf rust on wheat seedlings, sprayed the day before inoculation, visual disease rating; conditions: 100 = 100% disease control; for pest or weed control at 200 ppm: Puccinia recondita, 168 h
Excerpt: as §1

[3] = test system: Botrytis cinerea; experiment: Test C: tomato Botrytis on tomato seedlings, sprayed the day before inoculation, visual disease rating; conditions: 100 = 100% disease control; for pest or weed control at 200 ppm: Botrytis cinerea, 120 h
Excerpt: General protocol for preparing test suspensions for Tests A-J: The test compounds were first dissolved in acetone in an amount equal to 3% of the final volume and then suspended at the desired concentration (in ppm) in acetone and purified water (50/50 mix) containing 250 ppm of the surfactant Trem® 014 (polyhydric alcohol esters). The resulting test suspensions were then used in tests A-J. Spraying a 200 ppm test suspension to the point of run-off on the test plants was the equivalent of a rate of 500 g/ha. […] The test suspension was sprayed to the point of run-off on tomato seedlings. […] A dash (-) indicates no test results. All results are for 200 ppm except where followed by “*”, which indicates 40 ppm.

[4] = test system: Erysiphe graminis f. sp. tritici; experiment: Test J: wheat powdery mildew on wheat seedlings, sprayed the day before inoculation, visual disease rating; conditions: 100 = 100% disease control; for pest or weed control at 200 ppm: Blumeria graminis, 168 h
Excerpt: as §1

[5] = test system: Septoria tritici; experiment: Test G: wheat leaf blotch on wheat seedlings, sprayed the day before inoculation, visual disease rating; conditions: 100 = 100% disease control; for pest or weed control at 200 ppm: Zymoseptoria tritici, 504 h
Excerpt: General protocol for preparing test suspensions for Tests A-J: The test compounds were first dissolved in acetone in an amount equal to 3% of the final volume and then suspended at the desired concentration (in ppm) in acetone and purified water (50/50 mix) containing 250 ppm of the surfactant Trem® 014 (polyhydric alcohol esters). The resulting test suspensions were then used in tests A-J. Spraying a 200 ppm test suspension to the point of run-off on the test plants was the equivalent of a rate of 500 g/ha. […] The test suspension was sprayed to the point of run-off on wheat seedlings. The following day the seedlings were inoculated with a spore suspension of Septoria tritici (the causal agent of wheat leaf blotch) and incubated in saturated atmosphere at 24° C. for 48 h, and then moved to a growth chamber at 20° C. for 19 days, after which time visual disease ratings were made. […] A dash (-) indicates no test results. All results are for 200 ppm except where followed by “*”, which indicates 40 ppm.

[6] = test system: Alternaria solani; experiment: Test D: tomato early blight, sprayed the day before inoculation, visual disease rating; conditions: 100 = 100% disease control; for pest or weed control at 200 ppm: Alternaria solani, 168 h
Excerpt: as §1

[7] = 200 ppm, 0 = no control relative to controls
[8] = 40 ppm (marked *), 0 = no control

SMILES | Test F disease control rating [1, 7] [%] | Test I disease control rating [2, 7] [%] | Test C disease control rating [3, 7] [%] | Test J disease control rating [4, 7] [%] | Test G disease control rating [5, 7] [%] | Test D disease control rating [6, 7] [%] | Test F disease control rating ([1]; 200 ppm, 0 = no control) [%] | Test I disease control rating ([2]; 200 ppm, 0 = no control) [%] | Test C disease control rating ([3]; 200 ppm, 0 = no control) [%] | Test J disease control rating ([4]; 200 ppm, 0 = no control) [%] | Test G disease control rating ([5]; 200 ppm, 0 = no control) [%] | Test D disease control rating ([6]; 200 ppm, 0 = no control) [%] | also measured
Fc1ccc(-n2c(Cl)nc(Cl)c2-c2c(F)ccc(F)c2F)cc1 [compound 129] | 0 | 74 | 99 | 95 | 89 | 100 | – | – | – | – | – | – | –
Cc1nc(Cl)c(-c2c(F)cccc2F)n1-c1cc(F)cc(F)c1 [compound 73] | 60 | 100 | 100 | 100 | 87 | 100 | – | – | – | – | – | – | –
Fc1ccc(-c2c(Cl)nc(Cl)n2-c2ccc(Cl)c(F)c2)c(Cl)c1 [compound 229] | – | – | – | – | – | – | 0 | 89 | 98 | 91 | 98 | 99 | –
Fc1ccc(-n2c(Br)nc(Cl)c2-c2c(F)ccc(F)c2F)cc1 [compound 134] | 99 | 99 | 97 | 100 | 93 | 100 | – | – | – | – | – | – | –
Fc1cc(F)c(-n2cnc(Cl)c2-c2ccc(Cl)cc2)c(F)c1 [compound 98] | – | – | – | – | – | – | – | – | – | – | – | – | Test F disease control rating ([1]; 40 ppm (marked *)): 0* %; Test I disease control rating ([2]; 40 ppm (marked *)): 0* %; Test C disease control rating ([3]; 40 ppm (marked *)): 0* %; Test J disease control rating ([4]; 40 ppm (marked *)): 0* %; Test G disease control rating ([5]; 40 ppm (marked *)): 27* %; Test D disease control rating ([6]; 40 ppm (marked *)): 0* %
Fc1ccc(F)c(-c2c(Cl)nc(Br)n2-c2ccc(Cl)cc2)c1Cl [compound 76] | 60 | 99 | 37 | 100 | 97 | 99 | – | – | – | – | – | – | –
Cc1nc(Cl)c(-c2c(F)cc(F)cc2F)n1-c1ccc(F)cc1 [compound 167] | – | – | – | – | – | – | – | – | – | – | – | – | Test F disease control rating [1, 8]: 0* %; Test I disease control rating [2, 8]: 0* %; Test C disease control rating [3, 8]: 99* %; Test J disease control rating [4, 8]: 98* %; Test G disease control rating [5, 8]: 95* %; Test D disease control rating [6, 8]: 100* %
COc1cc(F)c(-c2c(-c3cccc(F)c3)c(C)nn2C)c(F)c1 [compound 78] | 0 | 99 | 91 | 100 | 92 | 100 | – | – | – | – | – | – | –
Cc1ccc(-n2c(Br)nc(Cl)c2-c2c(F)cccc2F)cc1F [compound 170] | – | – | – | – | – | – | 0 | 99 | 97 | 99 | 95 | 98 | –
Cc1nc(Cl)c(-c2c(F)cccc2F)n1Cc1ccccc1 [compound 118] | 60 | 99 | 99 | 100 | 94 | 100 | – | – | – | – | – | – | –
COc1ccc(F)c(-c2c(Cl)nc(Cl)n2-c2cccc(F)c2)c1F [compound 279] | – | – | – | – | – | – | 100 | 100 | 100 | 100 | 93 | 100 | –
Cc1ccc(-n2c(Br)nc(Cl)c2-c2c(F)ccc(F)c2F)cc1 [compound 141] | 0 | 99 | 99 | 100 | 91 | 100 | – | – | – | – | – | – | –
Cc1nc(Cl)c(Cc2c(F)cccc2F)n1-c1ccc(Cl)cc1 [compound 258] | – | – | – | – | – | – | 42 | 97 | 99 | 78 | 87 | 0 | –
Cn1nc(Br)c(-c2c(F)cccc2F)c1-c1ccc(Cl)cc1 [Compound 125, 3-bromo-5-(4-chlorophenyl)-4-(2,6-difluorophenyl)-1-methyl-1H-pyrazole] | – | – | – | – | – | – | – | – | – | – | – | – | pest or weed control at 200 ppm [1, 7]: 0%; pest or weed control at 200 ppm [2, 7]: 91%; pest or weed control at 200 ppm [3, 7]: 98%; pest or weed control at 200 ppm [4, 7]: 100%; pest or weed control at 200 ppm [5, 7]: 92%; pest or weed control at 200 ppm [6, 7]: 100%
Fc1cc(Cn2c(Br)nc(Cl)c2-c2c(F)cccc2F)ccc1Cl [compound 102] | 55 | 99 | 98 | 99 | 97 | 0 | – | – | – | – | – | – | –
Fc1ccc(-c2c(Cl)nc(Br)n2-c2ccc(Cl)c(F)c2)c(Cl)c1 [compound 202] | – | – | – | – | – | – | 98 | 98 | 91 | 100 | 97 | 61 | –
CCn1nc(Br)c(-c2c(F)cccc2F)c1-c1ccc(Cl)cc1 [compound 165] | – | – | – | – | – | – | 0 | 27 | 0 | 93 | 93 | 0 | –
Cc1ccc(F)c(-c2c(Cl)nc(C)n2-c2ccc(Cl)cc2)c1F [compound 107] | 100 | 100 | 96 | 100 | 96 | 100 | – | – | – | – | – | – | –
COc1cc(F)c(-c2c(Cl)nc(Br)n2-c2cccc(F)c2)c(F)c1 [Compound 256, 2-bromo-4-chloro-5-(2,6-difluoro-4-methoxyphenyl)-1-(3-fluorophenyl)-1H-imidazole] | – | – | – | – | – | – | – | – | – | – | – | – | pest or weed control at 200 ppm ([1]; 200 ppm, 0 = no control): 100%; pest or weed control at 200 ppm ([2]; 200 ppm, 0 = no control): 100%; pest or weed control at 200 ppm ([3]; 200 ppm, 0 = no control): 100%; pest or weed control at 200 ppm ([4]; 200 ppm, 0 = no control): 99%; pest or weed control at 200 ppm ([5]; 200 ppm, 0 = no control): 97%; pest or weed control at 200 ppm ([6]; 200 ppm, 0 = no control): 100%
Cc1ccc(-n2c(Br)nc(Cl)c2-c2c(F)ccc(F)c2Cl)cc1 [compound 197] | – | – | – | – | – | – | 0 | 100 | 99 | 100 | 93 | 99 | –
Fc1ccc(-n2c(Br)nc(Cl)c2-c2c(F)ccc(F)c2Cl)cc1 [compound 195] | – | – | – | – | – | – | 64 | 100 | 99 | 94 | 94 | 100 | –
COc1ccc(F)c(-c2c(Cl)ncn2-c2ccc(I)cc2)c1F [compound 448] | 89 | 95 | 97 | 98 | 98 | 100 | – | – | – | – | – | – | –
